Data published in PubChem BioAssay AID206 (DTP/NCI, 2004).
Several values for one entry are separate records, joined by “and”; a condition that tells them apart may be missing. Equal entries are not always repeated. Results filed as inconclusive are left out. Positions of bridges follow the written chain, without caps; N, C: chain ends. Non-standard residues stand in square brackets, D forms with d. Residues, ends and D or L forms follow the SMILES beside them. Chains are numbered I, II in the order given. *: point of attachment. Quinoxaline2carbonyl = O=C(c1cnc2ccccc2n1)*; NMeV = CN[CH](C(=O)O)C(C)C; NMeC = CN[CH](CS)C(=O)O

Test system: nude mice, HT29 intrarenal xenograft, tumor weight T/C
Assay: NCI In Vivo Anticancer Drug Screen. Data for tumor model HT29;CX-1 Human Adenocarcinoma (MER+) (intrarenal inoculation) in NU/NU Swiss (nude) mice
Conditions: endpoint: mean tumor weight change, higher = larger tumour
Summary of the method: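 Endpoint measured as tumor size or survival; ratio reported is treated group over vehicle controls.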

[1] = dose: 300.0 mg/kg/injection, schedule: Q04DX004 (sc), vehicle: Klucel (hydroxypropylcellulose) (HPC)
[2] = dose: 600.0 mg/kg/injection, schedule: Q04DX004 (sc), vehicle: Klucel (hydroxypropylcellulose) (HPC)
[3] = dose: 1200.0 mg/kg/injection, schedule: Q04DX004 (sc), vehicle: Klucel (hydroxypropylcellulose) (HPC)
[4] = dose: 2400.0 mg/kg/injection, schedule: Q04DX004 (sc), vehicle: Klucel (hydroxypropylcellulose) (HPC)
[5] = dose: 100.0 mg/kg/injection, schedule: Q04DX004 (sc), vehicle: Klucel (hydroxypropylcellulose) (HPC)
[6] = dose: 200.0 mg/kg/injection, schedule: Q04DX004 (sc), vehicle: Klucel (hydroxypropylcellulose) (HPC)
[7] = dose: 400.0 mg/kg/injection, schedule: Q04DX004 (sc), vehicle: Klucel (hydroxypropylcellulose) (HPC)
[8] = dose: 400.0 mg/kg/injection, schedule: Q04DX004 (sc), vehicle: saline with Tween-80
[9] = dose: 800.0 mg/kg/injection, schedule: Q04DX004 (sc), vehicle: saline with Tween-80
[10] = dose: 300.0 mg/kg/injection, schedule: Q04DX004 (sc), vehicle: saline with Tween-80
[11] = dose: 600.0 mg/kg/injection, schedule: Q04DX004 (sc), vehicle: saline with Tween-80
[12] = dose: 50.0 mg/kg/injection, schedule: Q01DX010 (sc), vehicle: saline with Tween-80
[13] = dose: 100.0 mg/kg/injection, schedule: Q01DX010 (sc), vehicle: saline with Tween-80

In the case of `CCC(=O)O[C@H]1CC[C@H]2[C@@H]3CCC4=CC(=O)CC[C@]4(C)[C@H]3CC[C@]12C`, the T/C [1] is reported as 59 % of control, the T/C [2] is reported as 82 % of control and the T/C [3] is reported as 103 % of control. For the same compound, the T/C [4] was 52 % of control.

`N#CN=[N+]([O-])c1ccc(C(=O)O)cc1` was tested, and the T/C (dose: 45.0 mg/kg/injection, schedule: Q04DX004 (sc), vehicle: Klucel (hydroxypropylcellulose) (HPC)) was 60 % of control.

With `CC1NC(=O)C(NC(=O)c2cnc3ccccc3n2)COC(=O)C(C(C)C)N(C)C(=O)C2CSSCC(C(=O)N(C)C(C(C)C)C(=O)OCC(NC(=O)c3cnc4ccccc4n3)C(=O)NC(C)C(=O)N2C)N(C)C1=O` (configuration not stated) (I: Quinoxaline2carbonyl-SA[NMeC][NMeV] / II: Quinoxaline2carbonyl-SA[NMeC][NMeV]; ester I:1-II:C, I:C-II:1; disulfide I:3-II:3; configuration not given here) the T/C [5] was 115 % of control, the T/C [6] was 96 % of control and the T/C [7] was 74 % of control.

`O=C(O)C(CSC(c1ccccc1)(c1ccccc1)c1ccccc1)N=Cc1cccs1` (configuration not stated) was tested, and the T/C (dose: 200.0 mg/kg/injection, schedule: Q04DX004 (sc), vehicle: suspension in saline) was 12 % of control.

In the case of `COc1cc2c(c(OC)c1OC)-c1c(cc3c(c1OC)OCO3)CC(C)C(C)(O)C2OC(=O)c1ccccc1` (configuration not stated), the T/C (dose: 75.0 mg/kg/injection, schedule: Q04DX004 (sc), vehicle: saline + alcohol) is reported as 63 % of control.

`O=C(O)CCCCCCCC(=O)O` was tested, and the T/C (dose: 600.0 mg/kg/injection, schedule: Q04DX004 (sc), vehicle: distilled water + Tween-80) was 67 % of control and the T/C (dose: 2400.0 mg/kg/injection, schedule: Q04DX004 (sc), vehicle: distilled water + Tween-80) was 113 % of control.

`CCN1/C(=C/C=C/C=C/c2sc3ccccc3[n+]2CC)Sc2ccccc21` was tested, and the T/C (dose: 0.38 mg/kg/injection, schedule: Q04DX004 (sc), vehicle: suspension in saline) was 77 % of control, the T/C (dose: 0.75 mg/kg/injection, schedule: Q04DX004 (sc), vehicle: suspension in saline) was 72 % of control and the T/C (dose: 1.5 mg/kg/injection, schedule: Q04DX004 (sc), vehicle: suspension in saline) was 104 % of control. For the same compound, the T/C (dose: 3.0 mg/kg/injection, schedule: Q04DX004 (sc), vehicle: suspension in saline) was 89 % of control.

In the case of `O=C1[C@H]2CCC[C@H]2[C@H]2CCC[C@@H]12`, the T/C (dose: 100.0 mg/kg/injection, schedule: Q04DX004 (sc), vehicle: saline with Tween-80) is reported as 67 % of control, the T/C (dose: 200.0 mg/kg/injection, schedule: Q04DX004 (sc), vehicle: saline with Tween-80) is reported as 44 % of control and the T/C [8] is reported as 83 % of control. The T/C [9] was 82 % of control.

`NC(=S)N/N=C/c1ccc(OC(=O)COc2ccc(Cl)cc2)cn1` was tested, and the T/C [10] was 103 % of control and the T/C [11] was 150 % of control.

`Nc1n[nH]c(N)n1` was tested, and the T/C (dose: 200.0 mg/kg/injection, schedule: Q01DX010 (sc), vehicle: saline) was 295 % of control, the T/C (dose: 400.0 mg/kg/injection, schedule: Q01DX010 (sc), vehicle: saline) was 157 % of control and the T/C (dose: 800.0 mg/kg/injection, schedule: Q01DX010 (sc), vehicle: saline) was 215 % of control.

In the case of `CC1=C[S+](c2ccccc2)c2cccc3cc4ccccc4c1c23` (configuration not stated), the T/C (dose: 8.0 mg/kg/injection, schedule: Q04DX004 (sc), vehicle: saline with Tween-80) is reported as 45 % of control and the T/C (dose: 16.0 mg/kg/injection, schedule: Q04DX004 (sc), vehicle: saline with Tween-80) is reported as 66 % of control.

With `CC(=O)C1(O)Cc2c(O)c3c(c(O)c2C(OC2CC(N)C(O)C(C)O2)C1)C(=O)c1ccccc1C3=O` (configuration not stated) the T/C (dose: 1.0 mg/kg/injection, schedule: Q04DX004 (sc), vehicle: water) was 67 % of control.

In the case of `N/C(=N\O)c1cn(C2OC(CO)C(O)C2O)c2ncnc(N)c12` (configuration not stated), the T/C (dose: 5.0 mg/kg/injection, schedule: Q04DX004 (sc), vehicle: Klucel (hydroxypropylcellulose) (HPC)) is reported as 67 % of control.

`Cc1cc(=NO)cc(C)n1O` was tested, and the T/C (dose: 150.0 mg/kg/injection, schedule: Q04DX004 (sc), vehicle: distilled water + alcohol) was 73 % of control, the T/C (dose: 300.0 mg/kg/injection, schedule: Q04DX004 (sc), vehicle: distilled water + alcohol) was 80 % of control and the T/C (dose: 600.0 mg/kg/injection, schedule: Q04DX004 (sc), vehicle: distilled water + alcohol) was 87 % of control. For the same compound, the T/C (dose: 1200.0 mg/kg/injection, schedule: Q04DX004 (sc), vehicle: distilled water + alcohol) was 65 % of control.

For `O=c1nc(Oc2ccccc2)nc2ncccn12`, the T/C [12] was 312 % of control and the T/C [13] was 156 % of control.

`O=S(=O)(SC(S(=O)(=O)c1ccccc1)S(=O)(=O)c1ccccc1)c1ccccc1` was tested, and the T/C [5] was 246 % of control, the T/C [6] was 203 % of control and the T/C [7] was 246 % of control.

For `COc1cccc2c1C(=N)c1c(O)c3c(c(O)c1C2=O)C[C@@](O)(C(C)=O)C[C@@H]3OC1CC(N)C(O)C(C)O1` (some centres not stated), the T/C (dose: 10.0 mg/kg/injection, schedule: Q04DX004 (sc), vehicle: water) was 102 % of control and the T/C (dose: 40.0 mg/kg/injection, schedule: Q04DX004 (sc), vehicle: water) was 53 % of control.

For `CN(C)CCOc1ccc2c(c1)C/C(=C/c1ncc([N+](=O)[O-])n1C)C2=O`, the T/C [12] was 83 % of control, the T/C [13] was 78 % of control and the T/C (dose: 200.0 mg/kg/injection, schedule: Q01DX010 (sc), vehicle: saline with Tween-80) was 18 % of control. For the same compound, the T/C (dose: 400.0 mg/kg/injection, schedule: Q01DX010 (sc), vehicle: saline with Tween-80) was 93 % of control.

In the case of `CN1N=C(N)c2cn(C3OC(COP(=O)(O)O)C(O)C3O)c3ncnc1c23` (configuration not stated), the T/C (dose: 25.0 mg/kg/injection, schedule: Q01DX010 (sc), vehicle: water) is reported as 156 % of control and the T/C (dose: 50.0 mg/kg/injection, schedule: Q01DX010 (sc), vehicle: water) is reported as 182 % of control.

With `COC(=O)Nc1cn2cc(C(=O)c3cccs3)ccc2n1` the T/C (dose: 75.0 mg/kg/injection, schedule: Q04DX004 (sc), vehicle: Klucel (hydroxypropylcellulose) (HPC)) was 91 % of control, the T/C (dose: 150.0 mg/kg/injection, schedule: Q04DX004 (sc), vehicle: Klucel (hydroxypropylcellulose) (HPC)) was 65 % of control and the T/C [1] was 50 % of control. The T/C [2] was 54 % of control and 76 % of control, the T/C [3] was 67 % of control and the T/C [4] was 36 % of control.

With `O=C(C/C(=N\C(=S)Nc1cc(C(F)(F)F)ccc1Cl)NO)N1CCCC1` the T/C (dose: 75.0 mg/kg/injection, schedule: Q04DX004 (sc), vehicle: saline with Tween-80) was 51 % of control, the T/C (dose: 150.0 mg/kg/injection, schedule: Q04DX004 (sc), vehicle: saline with Tween-80) was 49 % of control and the T/C [10] was 80 % of control. The T/C [11] was 70 % of control.

With `COC(C(=O)C(O)C(C)O)C1Cc2cc3cc(OC4CC(OC(C)=O)C(OC5CC(O)C(OC)C(C)O5)C(C)O4)cc(O)c3c(O)c2C(=O)C1OC1CC(OC2CC(OC3CC(C)(O)C(OC(=O)C(C)C)C(C)O3)C(O)C(C)O2)C(O)C(C)O1` (configuration not stated) the T/C (dose: 0.5 mg/kg/injection, schedule: Q01DX010 (sc), vehicle: saline with Tween-80) was 73 % of control, the T/C (dose: 1.0 mg/kg/injection, schedule: Q01DX010 (sc), vehicle: saline with Tween-80) was 97 % of control and the T/C (dose: 1.0 mg/kg/injection, schedule: Q04DX004 (sc), vehicle: saline with Tween-80) was 95 % of control. For the same compound, the T/C (dose: 2.0 mg/kg/injection, schedule: Q01DX010 (sc), vehicle: saline with Tween-80) was 105 % of control, the T/C (dose: 2.0 mg/kg/injection, schedule: Q04DX004 (sc), vehicle: saline with Tween-80) was 47 % of control and the T/C (dose: 4.0 mg/kg/injection, schedule: Q04DX004 (sc), vehicle: saline with Tween-80) was 50 % of control.

With `CCCCCCCCCCCCCCCC(=O)OCC1OC(n2ccc(N)nc2=O)C(O)C1O` (configuration not stated) the T/C (dose: 18.75 mg/kg/injection, schedule: Q04DX004 (sc), vehicle: saline with Tween-80) was 41 % of control.

For `BrC1CC(Br)c2c1c1c(c3c2C(Br)CC3Br)C(Br)CC1Br` (configuration not stated), the T/C (dose: 225.0 mg/kg/injection, schedule: Q04DX004 (sc), vehicle: water) was 76 % of control, the T/C (dose: 300.0 mg/kg/injection, schedule: Q04DX004 (sc), vehicle: water) was 84 % of control and the T/C (dose: 450.0 mg/kg/injection, schedule: Q04DX004 (sc), vehicle: water) was 157 % of control. For the same compound, the T/C (dose: 900.0 mg/kg/injection, schedule: Q04DX004 (sc), vehicle: water) was 158 % of control, the T/C (dose: 1200.0 mg/kg/injection, schedule: Q04DX004 (sc), vehicle: water) was 116 % of control and the T/C (dose: 1800.0 mg/kg/injection, schedule: Q04DX004 (sc), vehicle: water) was 22 % of control.

In the case of `CCOC(=O)[C@]1(Br)CC[C@@]1(Br)C(=O)OCC`, the T/C [8] is reported as 105 % of control, the T/C [9] is reported as 93 % of control and the T/C (dose: 1600.0 mg/kg/injection, schedule: Q04DX004 (sc), vehicle: saline with Tween-80) is reported as 43 % of control.
